# From patent US20250281499A1, “FUSED AMINO PYRIMIDINE COMPOUNDS FOR TREATMENT OF NEUROPATHIC AND NEURO-INFLAMMATORY PAIN” (Ovid Therapeutics Inc., priority 2024, published 2025)
# What was measured:
# [1] = test system: panel of 144 protein kinases; assay: Protein kinase panel (SelectScreen; Thermofisher); type: biochemical; details: 144 protein kinases incl. PKC isoforms, OSR1, SPAK, WNK
# Protocol: Aliquots of HEK-293 cells expressing, KCC2 were exposed to 30 μM SSA, heated from 37-55° C. The remaining level of soluble native KCC2 at each temperature was measured by immunoblotting and normalized to the level seen at 37° C. which was given a value of 1. […] This panel included protein kinase C isoforms, OSR1, SPAK (STK39) and with-no-lysine kinases (WNK), all of which phosphorylate KCC2 on multiple residues to indirectly modify its activity (Kahle et al., 2013, supra; Smalley et al., 2020, supra).
# hippocampus = assay: Neuronal cell death in the hippocampus, Compound A with diazepam; type: in vivo; details: mice, Compound A and diazepam vs diazepam alone
# [2] = test system: 18-20 Div hippocampal neurons; assay: Gramicidin perforated patch-clamp, EGABA in hippocampal neurons; type: cell-based, Sprague Dawley; details: 300 nM
# Protocol: (§1) Neuronal Cultures. Hippocampal neurons were prepared from Sprague Dawley E18 embryos and plated at 450,000 per dish and maintained at 37° C. in a humidified 5% CO2 incubator for 10-25 days before experimentation (Lee et al., Nat. Neurosci. 14, 736-743 (2011)).
# At this developmental stage, GABAAR receptor activation leads to hyperpolarization, a phenomenon critically dependent upon KCC2 (Kontou et al., J Biol Chem, 100364 (2021)).
# (§2) Neuronal Patch clamp assays. Neuronal cell culture recordings were performed in bath saline at 34° C. For gramicidin perforated-patch experiments, pipettes contained (in mM): 140 KCl and 10 HEPES, pH 7.4 KOH. For whole-cell experiments, pipettes contained (in mM): 115 K-meth-SO4, 30 KCl, 2 Mg-ATP, 4 Na-ATP, 0.4 Na-GTP, and 10 HEPES, pH 7.4 KOH. Bath saline contained the following (in mM): 140 NaCl, 2.5 KCl, 2.5 CaCl2, 2.5 MgCl2, 10 HEPES, and 11 glucose, pH 7.4 NaOH (Kontou et al., 2021, supra). All compound solutions were applied to cells using a three-barreled 700 μm pipe positioned just above the cell (Warner Instruments). […] All voltages from whole-cell experiments were corrected offline using a calculated liquid junction potential value (13.6 mV) in Clampex (Molecular Devices). For gramicidin perforated-patch experiments, intracellular Cl^− values were back-calculated using measured EGABA values and the Nernst equation: […]
# hippocampal neurons = assay: Whole cell patch-clamp with imposed Cl− load in hippocampal neurons; type: cell-based, Sprague Dawley; details: 1 h incubation, 32 mM Cl− load; controls −47.4±2.3
# Protocol: as §1, §2
# 5 min after break-in, an initial EGABA value was determined and the effects of a subsequent 5 min incubation with VU0463271 was assessed.
# acute brain slices = assay: Late recurrent discharges in acute brain slices exposed to 0-Mg
smiles,measurement,setting,value
"C[C@@H]1CN(c2nc3c(c(Nc4ccc(C5CCCCC5)cc4)n2)COC3)CCO1 [Compound A, (R)—N-(4-cyclohexylphenyl)-2-(2-methylmorpholino)-5,7-dihydrofuro[3,4-d]pyrimidin-4-amine]",activity of kinase panel,[1],did not modify the activity
same,neuronal cell death in the hippocampus,hippocampus,significantly reduced
same,reduction in Cl−,"[2]; 15 min, calculated from EGABA",2.2 ± 0.6 mM
same,EGABA at 15 min,"[2]; from −75±3.1 at 0 min, bumetanide and TTX present",−85.1±4.2 mV
same,basal EGABA,hippocampal neurons,−59.3±2.1 mV
same,development of late recurrent discharges (LRDs),acute brain slices,reduced
